Laboratory results reported in ChEMBL document CHEMBL1158079, “Antimalarial 4-phenylcoumarins from the stem bark of Hintonia latiflora” (J Nat Prod, 2006).
≈ marks a conversion by molar mass, not a printed value.

Tests used:
[1] = Toxicity against human SQC1 UISO cells; format: cell-based; details: read-out: ED50 (the source's name)
[2] = Toxicity against human KB cells; format: cell-based; details: read-out: ED50 (the source's name)
[3] = Toxicity against mouse P388 cells; format: cell-based; details: read-out: ED50 (the source's name)
[4] = test system: Plasmodium berghei; assay: Antimalarial activity in schizont maturation against Plasmodium berghei ANKA infected mice (Mus musculus) at 200 mg/kg/day peroral dose over 4 days; format: functional; details: route oral
[5] = test system: Mus musculus; assay: Toxicity in Plasmodium berghei ANKA infected mice (Mus musculus) at 40 mg/kg/day, perorally after 4 days; format: organism-based; design: route oral; details: in vivo, po, 96 h
[6] = test system: Plasmodium berghei; assay: Antimalarial activity as reduced schizont maturation in Plasmodium berghei ANKA infected mice (Mus musculus) at 5 mg/kg/day peroral dose over 4 days; format: functional; design: scale not given: the % may be the effect or the level left; details: route oral
[7] = test system: Plasmodium berghei; assay: Antimalarial activity reduced schizont maturation in Plasmodium berghei at 10 ug/mL after 16 hrs; format: functional; design: scale not given: the % may be the effect or the level left
[8] = test system: Plasmodium berghei; assay: Antimalarial activity as reduced schizont maturation in Plasmodium berghei after 16 hrs; format: functional; design: scale not given: the % may be the effect or the level left
[9] = test system: Plasmodium berghei; assay: Antimalarial activity as reduced schizont maturation in Plasmodium berghei ANKA infected mice (Mus musculus) at 40 mg/kg/day peroral dose over 4 days; format: functional; design: scale not given: the % may be the effect or the level left; details: route oral

| SMILES | CC50 [1] | CC50 [2] | CC50 [3] | Activity [4] | Activity [5] | Activity [6] | Activity [7] | Activity [8] | Activity [9] |
| --- | --- | --- | --- | --- | --- | --- | --- | --- | --- |
| Cc1c2ccncc2c(C)c2c1[nH]c1ccccc12 [ELLIPTECINE] | 1.77 µg/mL (≈ 7.19 µM) | 1.31 µg/mL (≈ 5.32 µM) | < 1 µg/mL | – | – | – | – | – | – |
| CCN(CC)CCCC(C)Nc1ccnc2cc(Cl)ccc12 (stereo not drawn) [CHLOROQUINE] | – | – | – | 94% | Non-toxic | 95.7% | 100% | – | – |
| COc1cc(O[C@@H]2O[C@H](CO)[C@@H](O)[C@H](O)[C@H]2O)c2c(-c3ccc(OC)c(O)c3)cc(=O)oc2c1 | – | – | – | – | Non-toxic | – | – | 24.7% | 35.1% |
| COc1cc(O[C@@H]2O[C@H](CO)[C@@H](O)[C@H](O)[C@H]2O)c2c(-c3ccc(O)c(O)c3)cc(=O)oc2c1 | – | – | – | – | Non-toxic | – | – | 25.9% | 70.8% |
